Results on 6 compounds are retold here after patent publication US20260176320A1, “MODULATORS OF G-PROTEIN COUPLED RECEPTORS” (priority 2018, published 2026).

What all share (type): cell-based
For test [1], the target named is T1, GLP-1R (Homo sapiens, UniProt P43220). In words: PathHunter β-arrestin assay. The following applies: PathHunter β-arrestin assay; read-out: β-arrestin activity EC50. The method, boiled down: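 Following a 90 min agonist exposure at 37 °C in 0.2% BSA medium, β-arrestin coupling was detected by chemiluminescence after 3 h at room temperature.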
The next test concerns the target T2, GIP-R (Homo sapiens, UniProt P48546).
T2 sequence (P48546 22-466): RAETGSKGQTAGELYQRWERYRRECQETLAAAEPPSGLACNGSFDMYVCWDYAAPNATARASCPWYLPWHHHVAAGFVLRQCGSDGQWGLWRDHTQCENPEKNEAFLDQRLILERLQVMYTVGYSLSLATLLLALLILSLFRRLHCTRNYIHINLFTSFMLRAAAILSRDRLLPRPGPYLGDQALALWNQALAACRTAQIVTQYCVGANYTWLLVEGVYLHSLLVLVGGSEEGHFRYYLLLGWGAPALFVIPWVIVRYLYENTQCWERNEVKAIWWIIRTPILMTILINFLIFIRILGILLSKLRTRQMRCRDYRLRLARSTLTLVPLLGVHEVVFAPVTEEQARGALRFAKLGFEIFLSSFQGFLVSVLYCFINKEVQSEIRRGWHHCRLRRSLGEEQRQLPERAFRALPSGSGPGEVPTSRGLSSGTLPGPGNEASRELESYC
In words: HitHunter cAMP assay (GIP-R). The following applies: cAMP; for EC50: read-out: EC50 GIP-R/nM; for Emax: read-out: (Emax) GIP-R. An outline of the steps: (§1)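 Duplicate 22-point, 2-fold agonist titrations applied to receptor-expressing suspension cells in IBMX-containing HBSS; 30 min RT stimulation. Read: luminescent cAMP immunocompetition after O/N dark incubation.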

Test [2] deals with T1, GLP-1R. Description: HitHunter cAMP assay (GLP-1R). The following applies: cAMP; for Emax: read-out: (Emax) GLP-1R; for EC50: read-out: EC50 GLP-1R/nM. An outline of the steps:
as §1
(Cyclic AMP is a second messenger, typically raised through Gs and lowered through Gi signalling.)

Like-named read-outs stand apart in the source and are kept apart here. Some results are limits rather than exact numbers.

T1 sequence (P43220 24-463): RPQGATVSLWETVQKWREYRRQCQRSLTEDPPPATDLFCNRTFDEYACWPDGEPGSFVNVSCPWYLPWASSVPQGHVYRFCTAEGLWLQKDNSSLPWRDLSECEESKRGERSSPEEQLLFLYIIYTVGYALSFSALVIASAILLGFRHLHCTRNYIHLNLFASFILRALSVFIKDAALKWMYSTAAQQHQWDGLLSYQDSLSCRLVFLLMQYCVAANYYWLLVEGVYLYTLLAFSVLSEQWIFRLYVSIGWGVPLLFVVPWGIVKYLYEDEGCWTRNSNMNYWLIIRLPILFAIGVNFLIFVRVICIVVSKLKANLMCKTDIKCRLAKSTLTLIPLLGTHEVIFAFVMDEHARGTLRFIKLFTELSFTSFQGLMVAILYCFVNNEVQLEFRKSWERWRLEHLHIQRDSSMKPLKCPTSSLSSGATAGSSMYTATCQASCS

With `CC[C@H](C)[C@H](NC(=O)[C@H](CO)NC(=O)[C@H](Cc1ccc(O)cc1)NC(=O)[C@H](CC(=O)O)NC(=O)[C@H](CO)NC(=O)[C@@H](NC(=O)[C@H](Cc1ccccc1)NC(=O)[C@@H](NC(=O)CNC(=O)[C@H](CCC(=O)O)NC(=O)COCC(=O)NCCN1C(=O)CSC1=O)[C@@H](C)O)[C@@H](C)O)C(=O)N[C@@H](Cc1ccc(O)cc1)C(=O)N[C@@H](CC(C)C)C(=O)N[C@@H](CC(=O)O)C(=O)N[C@@H](CCCCN)C(=O)N[C@@H](CCC(N)=O)C(=O)N[C@@H](C)C(=O)N[C@@H](C)C(=O)NC(C)(C)C(=O)N[C@@H](CCC(=O)O)C(=O)N[C@@H](Cc1ccccc1)C(=O)N[C@H](C(=O)N[C@@H](CC(N)=O)C(=O)N[C@@H](Cc1c[nH]c2ccccc12)C(=O)N[C@@H](CC(C)C)C(=O)N[C@@H](CC(C)C)C(=O)N[C@@H](C)C(=O)NCC(=O)NCC(=O)N1CCC[C@H]1C(=O)N[C@@H](CO)C(=O)N[C@@H](CO)C(=O)NCC(=O)N[C@@H](C)C(=O)N1CCC[C@H]1C(=O)N1CCC[C@H]1C(=O)N1CCC[C@H]1C(=O)N[C@@H](CO)C(=O)N[C@@H](CCCCN)C(N)=O)C(C)C` [Compound 194], the EC50 on GLP-1R [1] is > 1000 nM; on GIP-R (Table 3), > 1000 nM; on GIP-R (Table 3A), > 1000 nM; at GLP-1R [2] (Table 3), 1 to 10 nM; at GLP-1R [2] (Table 3A) it was 1 to 10 nM. In addition, the maximal response (Emax) at 1 µM at GIP-R (read-out: (Emax) GIP-R at 1 μM, Table 3, at 1 μM) came to 12%. The Emax at GLP-1R [2] (Table 3) and at GLP-1R [2] (Table 3A) was 98% in each case.
In the case of `CC[C@H](C)[C@H](NC(=O)[C@H](CO)NC(=O)[C@H](Cc1ccc(O)cc1)NC(=O)[C@H](CC(=O)O)NC(=O)[C@H](CO)NC(=O)[C@@H](NC(=O)[C@H](Cc1ccccc1)NC(=O)[C@@H](NC(=O)CNC(=O)[C@H](CCC(=O)O)NC(=O)CSCC(=O)NCCN1C(=O)CSC1=O)[C@@H](C)O)[C@@H](C)O)C(=O)N[C@@H](Cc1ccc(O)cc1)C(=O)N[C@@H](CC(C)C)C(=O)N[C@@H](CC(=O)O)C(=O)N[C@@H](CCCCN)C(=O)N[C@@H](CCC(N)=O)C(=O)N[C@@H](C)C(=O)N[C@@H](C)C(=O)NC(C)(C)C(=O)N[C@@H](CCC(=O)O)C(=O)N[C@@H](Cc1ccccc1)C(=O)N[C@H](C(=O)N[C@@H](CC(N)=O)C(=O)N[C@@H](Cc1c[nH]c2ccccc12)C(=O)N[C@@H](CC(C)C)C(=O)N[C@@H](CC(C)C)C(=O)N[C@@H](C)C(=O)NCC(=O)NCC(=O)N1CCC[C@H]1C(=O)N[C@@H](CO)C(=O)N[C@@H](CO)C(=O)NCC(=O)N[C@@H](C)C(=O)N1CCC[C@H]1C(=O)N1CCC[C@H]1C(=O)N1CCC[C@H]1C(=O)N[C@@H](CO)C(=O)N[C@@H](CCCCN)C(N)=O)C(C)C` [Compound 196], the EC50 on GLP-1R [1] was > 1000 nM; at GIP-R (Table 3) it was 1 to 100 nM; on GIP-R (Table 3A), 1 to 100 nM; on GLP-1R [2] (Table 3), 0.1 to 10 nM; at GLP-1R [2] (Table 3A), 0.1 to 10 nM. Further, the Emax at GIP-R (Table 3) was in the range of 41 to 86%; at GIP-R (Table 3A), 41 to 86%; on GLP-1R [2] (Table 3) it was 93 to 104%; at GLP-1R [2] (Table 3A), 93 to 104%.
`CCCCCCCCCCCCCCCC(=O)N[C@@H](CCC(=O)NCCCC[C@H](NC(=O)[C@H](CO)NC(=O)[C@@H]1CCCN1C(=O)[C@@H]1CCCN1C(=O)[C@@H]1CCCN1C(=O)[C@H](C)NC(=O)CNC(=O)[C@H](CO)NC(=O)[C@H](CO)NC(=O)[C@@H]1CCCN1C(=O)CNC(=O)CNC(=O)[C@H](C)NC(=O)[C@H](CC(C)C)NC(=O)[C@H](CC(C)C)NC(=O)[C@H](Cc1c[nH]c2ccccc12)NC(=O)[C@H](CC(N)=O)NC(=O)[C@@H](NC(=O)[C@H](Cc1ccccc1)NC(=O)[C@H](CCC(=O)O)NC(=O)C(C)(C)NC(=O)[C@H](C)NC(=O)[C@H](C)NC(=O)[C@H](CCC(N)=O)NC(=O)[C@H](CCCCN)NC(=O)[C@H](CC(=O)O)NC(=O)[C@H](CC(C)C)NC(=O)[C@H](Cc1ccc(O)cc1)NC(=O)[C@@H](NC(=O)[C@H](CO)NC(=O)[C@H](Cc1ccc(O)cc1)NC(=O)[C@H](CC(=O)O)NC(=O)[C@H](CO)NC(=O)[C@@H](NC(=O)[C@H](Cc1ccccc1)NC(=O)[C@@H](NC(=O)CNC(=O)[C@H](CCC(=O)O)NC(=O)CC(C)(C)C(=O)NCCN1CCCCC1=O)[C@@H](C)O)[C@@H](C)O)[C@@H](C)CC)C(C)C)C(N)=O)C(=O)O` [Compound 204]: the EC50 at GLP-1R [1] is 20 to 1000 nM; on GIP-R (Table 3A), 10 to 100 nM; on GLP-1R [2] (Table 3A), < 0.1 nM. Also, the Emax on GIP-R (Table 3A) came out at 98%.
On the same counts, the results for `CCCCCCCCCCCCCCCC(=O)N[C@@H](CCC(=O)NCCCC[C@H](NC(=O)[C@H](CO)NC(=O)[C@@H]1CCCN1C(=O)[C@@H]1CCCN1C(=O)[C@@H]1CCCN1C(=O)[C@H](C)NC(=O)CNC(=O)[C@H](CO)NC(=O)[C@H](CO)NC(=O)[C@@H]1CCCN1C(=O)CNC(=O)CNC(=O)[C@H](C)NC(=O)[C@H](CC(C)C)NC(=O)[C@H](CC(C)C)NC(=O)[C@H](Cc1c[nH]c2ccccc12)NC(=O)[C@H](CC(N)=O)NC(=O)[C@@H](NC(=O)[C@H](Cc1ccccc1)NC(=O)[C@H](CCC(=O)O)NC(=O)C(C)(C)NC(=O)[C@H](C)NC(=O)[C@H](C)NC(=O)[C@H](CCC(N)=O)NC(=O)[C@H](CCCCN)NC(=O)[C@H](CC(=O)O)NC(=O)[C@H](CC(C)C)NC(=O)[C@H](Cc1ccc(O)cc1)NC(=O)[C@@H](NC(=O)[C@H](CO)NC(=O)[C@H](Cc1ccc(O)cc1)NC(=O)[C@H](CC(=O)O)NC(=O)[C@H](CO)NC(=O)[C@@H](NC(=O)[C@H](Cc1ccccc1)NC(=O)[C@@H](NC(=O)CNC(=O)[C@H](CCC(=O)O)NC(=O)CN(C)C(=O)CN1CCCCC1=O)[C@@H](C)O)[C@@H](C)O)[C@@H](C)CC)C(C)C)C(N)=O)C(=O)O` [Compound 205] are > 1000 nM, 1 to 10 nM, < 0.1 nM and 61%.
As for `CCCCCCCCCCCCCCCC(=O)N[C@@H](CCC(=O)NCCCC[C@H](NC(=O)[C@H](CO)NC(=O)[C@@H]1CCCN1C(=O)[C@@H]1CCCN1C(=O)[C@@H]1CCCN1C(=O)[C@H](C)NC(=O)CNC(=O)[C@H](CO)NC(=O)[C@H](CO)NC(=O)[C@@H]1CCCN1C(=O)CNC(=O)CNC(=O)[C@H](C)NC(=O)[C@H](CC(C)C)NC(=O)[C@H](CC(C)C)NC(=O)[C@H](Cc1c[nH]c2ccccc12)NC(=O)[C@H](CC(N)=O)NC(=O)[C@@H](NC(=O)[C@H](Cc1ccccc1)NC(=O)[C@H](CCC(=O)O)NC(=O)C(C)(C)NC(=O)[C@H](C)NC(=O)[C@H](C)NC(=O)[C@H](CCC(N)=O)NC(=O)[C@H](CCCCN)NC(=O)[C@H](CC(=O)O)NC(=O)[C@H](CC(C)C)NC(=O)[C@H](Cc1ccc(O)cc1)NC(=O)[C@@H](NC(=O)[C@H](CO)NC(=O)[C@H](Cc1ccc(O)cc1)NC(=O)[C@H](CC(=O)O)NC(=O)[C@H](CO)NC(=O)[C@@H](NC(=O)[C@H](Cc1ccccc1)NC(=O)[C@@H](NC(=O)CNC(=O)[C@H](CCC(=O)O)NC(=O)CN(C)C(=O)CCN1CCCCC1=O)[C@@H](C)O)[C@@H](C)O)[C@@H](C)CC)C(C)C)C(N)=O)C(=O)O` [Compound 206], the EC50 at GLP-1R [1] was > 1000 nM; on GIP-R (Table 3A), 100 to 1000 nM; at GLP-1R [2] (Table 3A), < 0.1 nM. The Emax at GIP-R (Table 3A) was 18%.
For `CCCCCCCCCCCCCCCC(=O)N[C@@H](CCC(=O)NCCCC[C@H](NC(=O)[C@H](CO)NC(=O)[C@@H]1CCCN1C(=O)[C@@H]1CCCN1C(=O)[C@@H]1CCCN1C(=O)[C@H](C)NC(=O)CNC(=O)[C@H](CO)NC(=O)[C@H](CO)NC(=O)[C@@H]1CCCN1C(=O)CNC(=O)CNC(=O)[C@H](C)NC(=O)[C@H](CC(C)C)NC(=O)[C@H](CC(C)C)NC(=O)[C@H](Cc1c[nH]c2ccccc12)NC(=O)[C@H](CC(N)=O)NC(=O)[C@@H](NC(=O)[C@H](Cc1ccccc1)NC(=O)[C@H](CCC(=O)O)NC(=O)C(C)(C)NC(=O)[C@H](C)NC(=O)[C@H](C)NC(=O)[C@H](CCC(N)=O)NC(=O)[C@H](CCCCN)NC(=O)[C@H](CC(=O)O)NC(=O)[C@H](CC(C)C)NC(=O)[C@H](Cc1ccc(O)cc1)NC(=O)[C@@H](NC(=O)[C@H](CO)NC(=O)[C@H](Cc1ccc(O)cc1)NC(=O)[C@H](CC(=O)O)NC(=O)[C@H](CO)NC(=O)[C@@H](NC(=O)[C@H](Cc1ccccc1)NC(=O)[C@@H](NC(=O)CNC(=O)[C@H](CCC(=O)O)NC(=O)C(C)(C)NC(=O)CN1CCCCC1=O)[C@@H](C)O)[C@@H](C)O)[C@@H](C)CC)C(C)C)C(N)=O)C(=O)O` [Compound 209], the EC50 at GLP-1R [1] is 10 to 1000 nM; at GIP-R (Table 3A) it was 10 to 100 nM; on GLP-1R [2] (Table 3A), < 0.1 nM. The Emax on GIP-R (Table 3A) came to 27%; on GLP-1R [2] (Table 3A), 94%.

A word on the Emax: it is the maximal effect, on the per cent scale that the assay sets.
